Data as given in publication PMC8967002, “Quantitative input–output dynamics of a c-di-GMP signal transduction cascade in Vibrio cholerae” (PLoS Biology, 2022).

How the values were obtained:
[1] = target: NspS-6xHis (Vibrio cholerae, UniProt Q9KU25); experiment: biochemical
[2] = target: NspS-MbaA (Vibrio cholerae, UniProt Q9KU25); conditions: ΔnspC ΔpotD1 V. cholerae cells (no norspermidine synthesis or import); M9 minimal medium; activates MbaA diguanylate cyclase output via NspS
NspS-MbaA, sequence (Q9KU25 whole entry, looked up): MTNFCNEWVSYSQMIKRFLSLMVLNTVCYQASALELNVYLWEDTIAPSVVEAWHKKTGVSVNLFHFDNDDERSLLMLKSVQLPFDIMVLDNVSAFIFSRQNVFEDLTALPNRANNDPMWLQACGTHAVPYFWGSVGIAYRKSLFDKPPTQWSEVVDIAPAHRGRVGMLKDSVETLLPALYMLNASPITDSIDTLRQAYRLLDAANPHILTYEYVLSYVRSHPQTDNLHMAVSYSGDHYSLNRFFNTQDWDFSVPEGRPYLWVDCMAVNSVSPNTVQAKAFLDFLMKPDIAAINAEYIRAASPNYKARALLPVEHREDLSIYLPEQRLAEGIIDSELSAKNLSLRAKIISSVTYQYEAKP

NspS-6xHis, sequence (Q9KU25 35-359 limits assumed): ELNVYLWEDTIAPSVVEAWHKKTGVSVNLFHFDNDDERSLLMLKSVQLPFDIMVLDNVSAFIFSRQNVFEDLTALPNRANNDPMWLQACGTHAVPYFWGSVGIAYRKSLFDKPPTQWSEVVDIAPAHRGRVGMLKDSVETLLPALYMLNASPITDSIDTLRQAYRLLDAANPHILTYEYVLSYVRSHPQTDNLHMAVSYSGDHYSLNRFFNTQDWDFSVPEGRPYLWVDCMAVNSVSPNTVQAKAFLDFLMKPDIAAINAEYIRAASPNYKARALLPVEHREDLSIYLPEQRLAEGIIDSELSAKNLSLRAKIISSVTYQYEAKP

Row | SMILES | Kd [1] [µM] | EC50 [2] [µM]
1 | NCCCNCCCN [norspermidine] | 0.0671 ± 0.0122 | 0.001 to 0.005
2 | NCCCCNCCCN [spermidine] | 0.0484 ± 0.0147 | –
